This note sets out measurements from PubChem BioAssay AID1959 (Broad Institute, 2009).

Structures are written as SMILES. Calls of active or inactive are those of the source.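 Rule for the calls: active = growth-inhibition EC50 no more than tenfold above the top tested dose; inconclusive = flat fit between 30% and 70% inhibition, or unreliable fit; inactive = EC50 more than tenfold above the top tested dose.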

This assay relates to E. coli NEB5alpha growth, BacTiter-Glo luminescence, 4 h. Kind of assay: antibacterial activity against E. coli NEB5alpha – luminescence, counter-screen for MEX-5/POS-1 RNA-binding inhibitor project, dose response (AID 1959).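 Note: pUC19-transformed ampicillin-resistant cells grown in LB with ampicillin.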
By EC50 is commonly meant the concentration at which the effect is half-maximal. Turning to `CCc1ccc(/C=C2\Oc3c(ccc(O)c3CN3CCN(CCO)CC3)C2=O)cc1`, the EC50 was > 11 µM (inactive).
As for `C[C@@H]1O[C@@H](Oc2c(-c3cc(O)c(O)c(O)c3)oc3cc(O)cc(O)c3c2=O)[C@H](O)[C@H](O)[C@H]1O`, the EC50 is > 11 µM (inactive).
The same measure for `Cc1ccc(NC(=O)CN2C(=O)S/C(=C\c3cc(C)n(-c4cccc(C(=O)O)c4)c3C)C2=O)cc1`: > 11 µM (inactive); for `O=C1OCc2cc(-n3cccc3)ccc21`: > 11 µM (inactive); for `CSc1nnc(N2C(=O)C(O)=C(C(=O)c3ccco3)C2c2ccc(F)cc2)s1` (centres undefined): > 11 µM (inactive).
Regarding `Cc1cc(/C=C2\C(=O)NC(=O)N(c3ccc(Br)cc3)C2=O)c(C)n1C`, the EC50 was > 11 µM (inactive).
On to `CSc1nnc(N2C(=O)C(O)=C(C(=O)c3ccco3)C2c2ccccc2)s1` (centres undefined), for which the EC50 was > 11 µM (inactive).
For `CCOC(=O)N1CCN(/C=C(\C#N)c2nc3ccccc3s2)CC1`, the EC50 was > 11 µM (inactive).
For `O=C(NNC(=S)NC(=O)c1ccccc1[N+](=O)[O-])c1ccccc1O`, the EC50 was > 11 µM (inactive).
On to `COc1ccc(N2C(=O)NC(=O)/C(=C\c3cn(CC(=O)N4CCOCC4)c4ccccc34)C2=O)c(OC)c1`, for which the EC50 is > 11 µM (inactive).
For `COC(=O)CNC(=O)C1Nc2ccc(OC(F)(F)F)cc2C2C=CCC12` (centres undefined) the value was > 11 µM (inactive).
For `N/C(=N\N=C/c1ccc(-c2ccc(O)c(C(=O)O)c2)o1)N[N+](=O)[O-]`, the EC50 was > 11 µM (inactive).
Regarding `COc1cccc(C2C(C#N)=C(N)OC3=C2C(=O)CCC3)c1OC(=O)c1ccco1` (centres undefined), the EC50 is > 11 µM (inactive).
In the case of `COCc1cc(=O)n2[nH]c(-c3cccs3)cc2n1`, the EC50 was > 11 µM (inactive).
`CC(C)(C)C(=O)c1sc2nc(-c3cccs3)cc(C(F)(F)F)c2c1N`: the EC50 was > 11 µM (inactive).
Take `CCNC(=O)c1cc2c(=O)n3cccc(C)c3nc2n(Cc2ccc(C)cc2)c1=N`: the EC50 is > 11 µM (inactive).
In the case of `CCN1C(=O)/C(=C\c2cccs2)C(C(=O)OC)=C1C`, the EC50 was > 11 µM (inactive).
The same measure for `CCOc1ccc(NC(=O)COc2ccccc2)c([N+](=O)[O-])c1`: > 11 µM (inactive); for `Cc1nc(N2CCN(Cc3ccccc3)CC2)c(C#N)c2c1COC(C)(C)C2`: > 11 µM (inactive); for `COc1cc(/C=C2/C(=O)ON=C2C)ccc1OCc1ccccc1F`: > 11 µM (inactive).
The same measure for `Cc1cc(/C=C2/C(=O)NC(=O)N(Cc3ccco3)C2=O)c(C)n1-c1ccc(C(=O)O)cc1`: > 11 µM (inactive); for `Cn1c(=O)c(N)c2c3c(c(Br)ccc31)C(=O)c1ccccc1-2`: > 11 µM (inactive).
As to `N#CC1=C(N)C(C#N)(C#N)C(c2cccnc2)C2CCCC=C12` (centres undefined), the EC50 was > 11 µM (inactive).
On to `Cc1ccccc1N1C(=O)NC(=O)/C(=C\c2cc(C)n(C)c2C)C1=O`, for which the EC50 was > 11 µM (inactive).
As for `COc1ccc(/C=C/c2ccc3c(Br)ccc(O)c3n2)cc1`, the EC50 is > 11 µM (inactive).
As to `COC(=O)CNC(=O)C1Nc2ccccc2C2C=CCC12` (centres undefined), the EC50 was > 11 µM (inactive).
The same measure for `CSc1nc(=S)c2[nH]c(=S)[nH]c2[nH]1`: > 11 µM (inactive).
Turning to `O=C(O)c1ccc(-c2ccc(/C=C3\NC(=O)N(Cc4ccc(Cl)cc4)C3=O)o2)cc1Cl`, the EC50 was > 11 µM (inactive).
The same measure for `COc1ccc(/C=C2\CCCc3c2nc2ccccc2c3C(=O)O)cc1OC`: > 11 µM (inactive).
Consider `O=C(N/N=C/c1cc(Cl)cc([N+](=O)[O-])c1O)C(O)(c1ccccc1)c1ccccc1`, for which the EC50 was > 11 µM (inactive).
For `Cc1ccc2[nH]c(=O)c(CN(CCO)Cc3nnnn3CCc3ccccc3)cc2c1` the value was > 11 µM (inactive).
As to `COc1ccc(C2C(C#N)=C(N)OC3=C2C(=O)CCC3)cc1Cn1nc(C)c([N+](=O)[O-])c1C` (centres undefined), the EC50 is > 11 µM (inactive).
Take `COc1ccc(/C=C2\CCCC(C(=O)C(F)(F)F)=C2O)cc1`: the EC50 is > 11 µM (inactive).
Turning to `CC1=N/C(=C/c2ccco2)C(=O)O1`, the EC50 is > 11 µM (inactive).
Consider `COc1ccc(C(=O)c2sc3nc(C)cc(-c4cccs4)c3c2N)cc1`, for which the EC50 was > 11 µM (inactive).
In the case of `Cc1nc2cc(N)ccc2n1C1CCCCC1`, the EC50 is > 11 µM (inactive).
As to `Cn1cc(C2=C(c3ccc(Cl)cc3Cl)C(=O)NC2=O)c2ccccc21`, the EC50 is > 11 µM (inactive).
With `CC1=C[C@@H]2c3cccc4[nH]cc(c34)C[C@H]2N(C)C1`, the EC50 is > 11 µM (inactive).
As for `CC1(O)C(=O)C=C2C=C(C3CC3)OC=C2C1=O` (centres undefined), the EC50 is > 11 µM (inactive).
As for `CCN(CC)C(=O)Cn1cc(/C=C2\C(=O)NC(=O)N(c3ccccc3F)C2=O)c2ccccc21`, the EC50 is > 11 µM (inactive).
Regarding `N#CC1=C(N)OC2=C(C(=O)CCC2)[C@]12C(=O)N(CC(N)=O)c1ccccc12`, the EC50 is > 11 µM (inactive).
For `Cc1cccc(NC(=O)CN2C(=O)N/C(=C\c3cccn3-c3cccc(C(=O)O)c3)C2=O)c1`, the EC50 was > 11 µM (inactive).
For `CC1(OC(=O)CCc2ccccc2)C(=O)C=C2C=C(c3ccsc3)OC=C2C1=O` (centres undefined), the EC50 is > 11 µM (inactive).
For `COc1ccc(-c2cc(C(=O)N/N=C(\C)c3ccco3)c3ccccc3n2)c(OC)c1`, the EC50 is > 11 µM (inactive).
`COc1ccc(-c2nnc(Nc3nc4c(OC)cccc4s3)o2)c(OC)c1`: the EC50 is > 11 µM (inactive).
Regarding `O=C1NC(=O)[C@@H]2C3c4ccccc4C=CN3[C@H](C(=O)c3cccs3)[C@H]12` (some centres undefined), the EC50 is > 11 µM (inactive).
`CCOC(=O)N1CCN(C2=Nc3cccc4cccc2c34)CC1`: the EC50 is > 11 µM (inactive).
As for `CC(C)/C=C1\CC/C(=C\c2ccc(N(C)C)cc2)C1=O`, the EC50 was > 11 µM (inactive).
As for `CCOC(=O)c1nn(-c2ccc(C)cc2)c2nc(Nc3ccccc3)cc(=O)n12`, the EC50 was > 11 µM (inactive).
For `O=c1[nH]c2ccccc2nc1/C=C/c1ccc(F)cc1`, the EC50 was > 11 µM (inactive).
On to `CCOC(=O)C1=C(C)OC(N)=C(C#N)C1c1ccc(O)c(OC)c1` (centres undefined), for which the EC50 was > 11 µM (inactive).
The same measure for `NS(=O)(=O)c1ccc2c(c1)C1C=CCC1C(C1CC=CCC1)N2` (centres undefined): > 11 µM (inactive); for `CCCCC1=CC2=C(c3ccco3)C(=O)C(C)(OC(=O)c3ccc(OC)cc3)C(=O)C2=CN1C1CC1` (centres undefined): > 11 µM (inactive); for `C=CCn1c(O)c(C=Nc2ccc(N(CC)CC)cc2)c(=O)[nH]c1=O`: > 11 µM (inactive).
For `COc1ccccc1N1C(=O)C2C(C(=O)c3ccccc3)=NN(c3ccc(C)cc3)C2C1=O` (centres undefined), the EC50 is > 11 µM (inactive).
For the compound `Cc1c2ccccc2nc2c(F)c(NC(C)C)c(F)c(F)c12`, the EC50 was > 11 µM (inactive).
In the case of `CN1C(=O)C(=Cc2ccccc2OS(=O)(=O)c2ccccc2)C(=O)N(C)C1=O`, the EC50 is > 11 µM (inactive).
For `CC(C)C(C(=O)O)N1C(=O)/C(=C/C=C/c2ccco2)SC1=S` (centres undefined) the value was > 11 µM (inactive).
Consider `COc1ccc(NC(=O)CN2CCC(NC(=O)C3CCCCC3)CC2)c([N+](=O)[O-])c1`, for which the EC50 was > 11 µM (inactive).
